Measured values from US5162201A, “Analytical method making use of monoglyceride lipase” (priority 1987, dated 1992).

What was measured:
[1] = test system: monoglyceride lipase of this invention; assay: Substrate specificity of the monoglyceride lipase; format: biochemical, Bacillus stearothermophilus H-165; settings: named substance used as substrate
Experimental: (8) Substrate specificity: The substrate specificity of the monoglyceride lipase of this invention was investigated under conditions which followed the below-described measurement method of enzymatic activity for the monoglyceride lipase of this invention.
(§1) To 0.4 ml of a reaction solution of the above composition, 50 μl of 10 mM monolaurin (0.5% aqueous solution of "Triton X-100") was added. The resultant mixture was provisionally heated at 37° C. for 2-3 minutes and 50 μl of an enzyme solution was added to initiate a reaction. Exactly 10 minutes later, 2.5 ml of 0.5% SDS (sodium dodecyl suflate) was added to terminate the reaction. The absorbance was measured at a wavelength of 550 nm. Regarding the enzymatic activity, the activity capable of producing 1 μmole of glycerol per minute was defined as 1 Unit (1 U). The following equation will be followed upon calculation of enzymatic activity (potency) by this measurement method of enzymatic activity. [formula] ΔA 550: Absorbance at the wavelength of 500 nm 2.95: Total volume of reaction mixture (ml)

[2] = test system: monoglyceride lipase of this invention; assay: Effects of surface active agents and metal ions on the monoglyceride lipase; format: biochemical, Bacillus stearothermophilus H-165; settings: for Activity of lipase (%): not added = 100, 10 min
Experimental: as §1, with “activity.” for “activity. [formula] ΔA 550: Absorbance at the wavelength of 500 nm 2.95: Total volume of reaction mixture (ml)”

[3] = test system: monoglyceride lipase of this invention; assay: Glycerol liberated from α,β-diglycerides by pancreatic lipase plus monoglyceride lipase; format: biochemical, Bacillus stearothermophilus H-165; settings: for glycerol liberated from the α,β-diglyceride substrate: α-position hydrolyzed by pancreatic lipase, then monoglyceride lipase of this invention on the β-monoglyceride formed
Experimental: 2) Substrate specificity of the monoglyceride lipase upon use of α,β-diglyceride as a substrate:
i) The below-described α,β-diglycerides were separately employed as substrates. Their α-positions were hydrolyzed by using pancreatic lipase and the monoglyceride lipase of this invention was caused to act on β-monoglycerides thus formed. Thereafter, glycerol thus liberated was analyzed.

[4] = Confirmation by HPLC of fatty acid liberated from α-linoleoyl-β-oleoyl-diglyceride; format: biochemical; settings: 37° C., 10 minutes, pH 8.3; monoglyceride lipase (0.5 U) added to the pancreatic lipase reaction solution
Experimental: 1) Confirmation of a fatty acid liberated from α-linoleoyl-β-oleoyl-diglyceride as a substrate, by high performance liquid chromatography (HPLC): i) Pancreas-derived lipase (50 μl) was added to 1.0 ml of a reaction solution having a composition of 0.5 mg of α-linoleoyl-β-oleoyl-diglyceride, 1.8 mg of a non-ionic surface active agent ("Triton X-100", trade name; product of Sigma Chemical Company), 3.8 mg of deoxycholic acid, 20 U of colipase, 0.15 mg of calcium chloride, and 200 μl of 0.1 M N-tri(hydroxymethyl) methyl-3-aminopropanesulfonic acid (TAPS)-NaOH (pH 8.3). After allowing them to react at 37° C. for 10 minutes, the reaction was terminated. A 15 μl aliquot of the reaction mixture was applied on a column and was then analyzed by high performance liquid chromatography under the following conditions.
Column: "Zorbox ODS" (trade name; 4.6 mm.phi.×25 cm)
Solvent: acetonitrile:H2 O (96:4)
Detection: ultraviolet absorption at 205 nm […]
ii) The monoglyceride lipase (0.5 U) was added to a reaction solution of the same composition as that employed above. A fatty acid liberated in substantially the same manner was detected by high performance liquid chromatography. As a result, linoleic acid and oleic acid were confirmed at the retention times of 23 minutes and 31 minutes respectively.

**Q.** With `CCCCC/C=C\C/C=C\CCCCCCCC(=O)OCC(CO)OC(=O)CCCCCCC/C=C\C/C=C\CCCCC` (stereo not shown) [1,2-dilinolein] as the molecule, how does the “glycerol hydrolyzed from the substrate in the presence of the monoglyceride lipase” value (shortened to “glycerol hydrolyzed from the substrate”) [1] read?
**A.** not detected

**Q.** With `CCCCC/C=C\C/C=C\CCCCCCCC(=O)OCC(O)COC(=O)CCCCCCC/C=C\C/C=C\CCCCC` [1,3-dilinolein] as the molecule, how does the “glycerol hydrolyzed from the substrate” value [1] read?
**A.** not detected

**Q.** With `[Ca+2].[Cl-].[Cl-]` [CaCl2] as the molecule, how does the “effect of addition on the activity of the monoglyceride lipase (in words)” value (“effect of addition” below) [2] read?
**A.** not affected

**Q.** For `C[C@H](CCC(=O)O)[C@H]1CC[C@H]2[C@@H]3[C@H](O)C[C@@H]4C[C@H](O)CC[C@]4(C)[C@H]3C[C@H](O)[C@]12C` [Cholic acid], which “effect of addition” value [2] is on record?
**A.** inhibition of the activity is observed in a high concentration range

**Q.** Which “effect of addition” value [2] does the source give for `[Cl-].[Cl-].[Mg+2]` [MgCl2] here?
**A.** not affected

**Q.** For `CCCCCCCCCCCC(=O)OCC(O)CO` (stereo not shown) [Monolaurin], which “activity against the substrate (in words)” value [1] is on record?
**A.** maximum activity

**Q.** With `CCCCCCCC/C=C\CCCCCCCC(=O)OC(CO)CO` [Monoolein (β-monoglyceride), Monoolein] as the molecule, how does the “Activity of lipase (%)” value ([1]; Monolaurin = 100.0) read?
**A.** 75.6%

**Q.** Which “glycerol hydrolyzed from the substrate” value [1] does the source give for `CCCCCCCC/C=C\CCCCCCCC(=O)OCC(COC(=O)CCCCCCC/C=C\CCCCCCCC)OC(=O)CCCCCCC/C=C\CCCCCCCC` [Triolein] here?
**A.** not detected

**Q.** Which “glycerol liberated from the α,β-diglyceride substrate” value [3] does the source give for `CCCCC/C=C\C/C=C\CCCCCCCC(=O)OCC(CO)OC(=O)CCCCCCC/C=C\C/C=C\CCCCC` (stereo not drawn) [α,β-dilinoleylglyceride] here?
**A.** glycerol was detected

**Q.** Which “glycerol liberated from the α,β-diglyceride substrate” value [3] does the source give for `CCCCCCCC/C=C\CCCCCCCC(=O)OCC(CO)OC(=O)CCCCCCCCCCCCCCC` (stereo not drawn) [α-oleyl-β-palmitoyldiglyceride] here?
**A.** glycerol was detected

**Q.** Which “glycerol liberated from the α,β-diglyceride substrate” value [3] does the source give for `CCCCCCCC/C=C\CCCCCCCC(=O)OC(CO)COC(=O)CCCCCCCCCCCCCCC` (stereo not drawn) [α-palmitoyl-β-oleoyldiglyceride] here?
**A.** glycerol was detected

**Q.** What does the source list for Triton X-100?
**A.** effect of addition on the activity of the monoglyceride lipase (in words) [2]: inhibition of the activity is observed in a high concentration range; Activity of lipase (%) ([2]; reagent concentration 0.1%): 81.7%; Activity of lipase (%) ([2]; reagent concentration 0.5%): 46.5%

B1: pancreatic lipase: pancreas-derived lipase that hydrolyzes the α-position of α,β-diglyceride (protein, UniProt P00591 1-450, looked up)
Pancreatic triacylglycerol …: SEVCFPRLGCFSDDAPWAGIVQRPLKILPWSPKDVDTRFLLYTNQNQNNYQELVADPSTITNSNFRMDRKTRFIIHGFIDKGEEDWLSNICKNLFKVESVNCICVDWKGGSRTGYTQASQNIRIVGAEVAYFVEVLKSSLGYSPSNVHVIGHSLGSHAAGEAGRRTNGTIERITGLDPAEPCFQGTPELVRLDPSDAKFVDVIHTDAAPIIPNLGFGMSQTVGHLDFFPNGGKQMPGCQKNILSQIVDIDGIWEGTRDFVACNHLRSYKYYADSILNPDGFAGFPCDSYNVFTANKCFPCPSEGCPQMGHYADRFPGKTNGVSQVFYLNTGDASNFARWRYKVSVTLSGKKVTGHILVSLFGNEGNSRQYEIYKGTLQPDNTHSDEFDSDVEVGDLQKVKFIWYNNNVINPTLPRVGASKITVERNDGKVYDFCSQETVREEVLLTLNPC
**Q.** Which results are given for B1?
**A.** position of α,β-diglyceride / monoglyceride acted on, from the fatty acid liberated [4]: act on the α-position of α,β-diglyceride; glycerol liberated from the α,β-diglyceride substrates ([3]; pancreatic lipase used singly): glycerol was not detected
